The term EC50 denotes the concentration giving half of the maximal effect.

Here are results for twelve compounds from patent publication US20220162191A1, “SMALL MOLECULE MODULATORS OF IL-17” (LEO PHARMA A/S, priority 2019, published 2022).

In the test the target is T1, human IL-17AA (Homo sapiens, UniProt Q16552).
T1 construct: host or cells: HEK (human embryonic kidney) cells
T1 sequence (Q16552 24-155) 1: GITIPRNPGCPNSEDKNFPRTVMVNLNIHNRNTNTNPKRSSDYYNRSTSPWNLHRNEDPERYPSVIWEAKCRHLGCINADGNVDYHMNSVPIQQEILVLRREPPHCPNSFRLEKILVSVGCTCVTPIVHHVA
T1 sequence (Q16552 24-155) 2: T1 sequence (Q16552 24-155) 1
The experiment in a line: IL-8 release assay in human epithelial keratinocytes adult (HEKa). The conditions noted are these: 3 ng/ml human IL-17AA + 10 ng/ml human TNFalpha, 68-72 h, IL-8 by HTRF, read-out: Rel EC50 L-8 release assay. In kind it is cell-based. In outline: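 Adult human keratinocytes in Epilife with HKGS minus hydrocortisone, treated with compound then stimulated with final 3 ng/ml HEK-derived human IL-17AA plus 10 ng/ml TNF-alpha for 68–72 h at 37 °C; TNF-alpha alone defines 100% inhibition. Secreted IL-8 by HTRF; relative IC50 and Emax from four-parameter fits.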
(In TR-FRET formats the signal depends on donor and acceptor labels being close together.)
Take `Cc1n[nH]c(C)c1-c1ccc(NC(=O)[C@@H](NC(=O)C2(F)CC2)[C@@H]2CCCc3ccc(-c4cc(N5C[C@@H]6C[C@H]5CO6)ncn4)cc32)cc1` [Example 397, N-[(1S)-2-[4-(3,5-dimethyl-1H-pyrazol-4-yl)anilino]-1-[(1R)-7-[6-[(1S,4S)-2-oxa-5-azabicyclo[2.2.1]heptan-5-yl]pyrimidin-4-yl]tetralin-1-yl]-2-oxo-ethyl]-1-fluoro-cyclopropanecarboxamide]: the EC50 is less than 100 nM.

With `Cc1cnn(C)c1-c1ccc(NC(=O)[C@@H](NC(=O)C2(F)CC2)[C@@H]2CCCc3ccc(-c4ccnc(N5C[C@@H]6C[C@H]5CO6)c4)cc32)cc1` [Example 398, N-[(1S)-2-[4-(2,4-dimethylpyrazol-3-yl)anilino]-1-[(1R)-7-[2-[(1S,4S)-2-oxa-5-azabicyclo[2.2.1]heptan-5-yl]-4-pyridyl]tetralin-1-yl]-2-oxo-ethyl]-1-fluoro-cyclopropanecarboxamide], the concentration for a half-maximal effect (EC50) is less than 100 nM.

Regarding `Cc1cnn(C)c1-c1ccc(NC(=O)[C@@H](NC(=O)C2(F)CC2)[C@@H]2CCCc3ccc(-c4ccnc(N5C[C@H]6C[C@@H]5CO6)c4)cc32)cc1` [Example 399, N-[(1S)-2-[4-(2,4-dimethylpyrazol-3-yl)anilino]-1-[(1R)-7-[2-[(1R,4R)-2-oxa-5-azabicyclo[2.2.1]heptan-5-yl]-4-pyridyl]tetralin-1-yl]-2-oxo-ethyl]-1-fluoro-cyclopropanecarboxamide], the EC50 was less than 100 nM. For `Cc1nccn1-c1ccc(NC(=O)[C@@H](NC(=O)C2(F)CC2)[C@@H]2CCCc3ccc(-c4ccnc(N5C[C@@H]6C[C@H]5CO6)c4)cc32)cc1` [Example 400, 1-fluoro-N-[(1S)-2-[4-(2-methylimidazol-1-yl)anilino]-1-[(1R)-7-[2-[(1S,4S)-2-oxa-5-azabicyclo[2.2.1]heptan-5-yl]-4-pyridyl]tetralin-1-yl]-2-oxo-ethyl]cyclopropanecarboxamide], the 50% effective concentration (EC50) was in the range of 100 to 1000 nM. Then `Cc1nccn1-c1ccc(NC(=O)[C@@H](NC(=O)C2(F)CC2)[C@@H]2CCCc3ccc(-c4ccnc(N5C[C@H]6C[C@@H]5CO6)c4)cc32)cc1` [Example 401, 1-fluoro-N-[(1S)-2-[4-(2-methylimidazol-1-yl)anilino]-1-[(1R)-7-[2-[(1R,4R)-2-oxa-5-azabicyclo[2.2.1]heptan-5-yl]-4-pyridyl]tetralin-1-yl]-2-oxo-ethyl]cyclopropanecarboxamide], with 100 to 1000 nM; and `Cc1nccn1-c1ccc(NC(=O)[C@@H](NC(=O)c2ccnn2C)[C@@H]2CCCc3ccc(-c4ccnc(N5C[C@@H]6C[C@H]5CO6)c4)cc32)cc1` [Example 402, 2-methyl-N-[(1S)-2-[4-(2-methylimidazol-1-yl)anilino]-1-[(1R)-7-[2-[(1S,4S)-2-oxa-5-azabicyclo[2.2.1]heptan-5-yl]-4-pyridyl]tetralin-1-yl]-2-oxo-ethyl]pyrazole-3-carboxamide], with less than 100 nM; and `Cc1nccn1-c1ccc(NC(=O)[C@@H](NC(=O)c2ccnn2C)[C@@H]2CCCc3ccc(-c4ccnc(N5C[C@H]6C[C@@H]5CO6)c4)cc32)cc1` [Example 403, 2-methyl-N-[(1S)-2-[4-(2-methylimidazol-1-yl)anilino]-1-[(1R)-7-[2-[(1R,4R)-2-oxa-5-azabicyclo[2.2.1]heptan-5-yl]-4-pyridyl]tetralin-1-yl]-2-oxo-ethyl]pyrazole-3-carboxamide], with 100 to 1000 nM. As for `Cn1cncc1-c1ccc(NC(=O)[C@@H](NC(=O)C2(F)CC2)[C@@H]2CCCc3ccc(-c4ccnc(N5C[C@H]6C[C@@H]5CO6)c4)cc32)cc1O` [Example 404, 1-fluoro-N-[(1S)-2-[3-hydroxy-4-(3-methylimidazol-4-yl)anilino]-1-[(1R)-7-[2-[(1R,4R)-2-oxa-5-azabicyclo[2.2.1]heptan-5-yl]-4-pyridyl]tetralin-1-yl]-2-oxo-ethyl]cyclopropanecarboxamide], the figure is more than 1000 nM; as for `Cn1cnnc1-c1ccc(NC(=O)[C@@H](NC(=O)C2(F)CC2)[C@@H]2CCCc3ccc(-c4ccnc(N5C[C@H]6C[C@@H]5CO6)c4)cc32)cc1` [Example 405, 1-fluoro-N-[(1S)-2-[4-(4-methyl-1,2,4-triazol-3-yl)anilino]-1-[(1R)-7-[2-[(1R,4R)-2-oxa-5-azabicyclo[2.2.1]heptan-5-yl]-4-pyridyl]tetralin-1-yl]-2-oxo-ethyl]cyclopropanecarboxamide], more than 1000 nM; as for `Cc1cc(-c2ccc3c(c2)[C@H]([C@H](NC(=O)C2(F)CC2)C(=O)Nc2ccc(-n4ccnc4C)cc2)CCC3)cn(C(C)C)c1=O` [Example 406, 1-fluoro-N-[(1S)-1-[(1R)-7-(1-isopropyl-5-methyl-6-oxo-3-pyridyl)tetralin-1-yl]-2-[4-(2-methylimidazol-1-yl)anilino]-2-oxo-ethyl]cyclopropanecarboxamide], 100 to 1000 nM.

Consider “N-[1-[[2-chloro-5-(1-(l-6-oxo-3- pyridyl)phenyl]methyl]-2-[4-(3-chloro- 1H-pyrazol-4-yl)anilino]-2-oxo-ethyl]-2- methyl-pyrazole-3-carboxamide [Example 180]”, for which the concentration for a half-maximal effect (EC50) fell in the range of 100 to 1000 nM. Then “N-[(1S)-2-[6-chloro-3-(1-isopropyl- 6-oxo-3-pyridyl)cyclohexa-2,4-dien- 1-yl]-1-[[4-(3-methylimidazol-4- yl)phenyl]carbamoyl]propyl]-2- methyl-pyrazole-3-carboxamide [Example 54]”, with 100 to 1000 nM.
